Like-named read-outs stand apart in the source and are kept apart here.

Data set [1] concerns differentiated HL60 cells. As to the kind of experiment: Chemokinesis (fMLP in upper and lower Boyden chambers). Particulars: fMLP in both chambers; result in words. Format: cell-based, human. Here is the method:
Same as A with purified human neutrophils.
Chemotaxis was assayed using a Boyden chamber (Neuro Probe, Gaithersburg, Md.) using 3-μm polyvinylpyrrolidone-free polycarbonate filters (Neuro Probe). HL60 cells (differentiated for 4 days) were washed with and resuspended in HBSS containing 1% bovine serum albumin to a final concentration of 1×10^6 cells/ml. Primary human neutrophils were washed and resuspended in NaCl buffer (140 mM NaCl, 4 mM KCl, 10 mM D-glucose, 10 mM HEPES, pH 7.4, 1 mM MgCl2, and 1 mM CaCl2) to a final concentration of 1×10^6 cells/mi. Chemoattractant [1 μM granulocyte-macrophage-colony stimulating factor (GM-CSF), 10 nM IL-8, or 250 nM fMLP; Sigma Aldrich] was added to the bottom chamber in HBSS containing 1% bovine serum albumin. Cell suspensions (0.2×10^6 cells/well) were added to the top wells of the Boyden chamber and allowed to migrate for 1 h at 37° C. […] Chemotactic HL60 cells were scored by counting three microscope fields and subtracting the number of cells from fMLP wells as background. […] For all the small molecules, effects of the compounds on chemokinesis was analyzed by measuring chemotaxis in the presence of 250 nM fMLP in both the upper and lower chambers of the Boyden Chamber and measuring changes in transwell migration. […]

The test system of data set [2] is primary human neutrophils. As to the kind of experiment: IL-8-induced chemotaxis of primary human neutrophils (Boyden chamber). The class given is cell-based. Particulars: 10 μM compound, 10 nM IL-8; result in words. The protocol:
(§1) Differentiated HL60 cells (200 k) were pretreated with 10 μM concentrations of the indicated compound, challenged with 250 nM fMLP, and assayed for chemotaxis in a Boyden chamber for 1 h at 37° C. […] Chemotaxis was quantified as above by subtracting out background cells (0-10 cells) in the absence of chemoattractant to obtain total transmigrated cells (−100 cells GM-CSF+vehicle) and represented as the percentage of GM-CSF-treated control cells. No statistically significant difference from control was seen by ANOVA. […] Primary human neutrophils were isolated from whole blood to ≧80% purity. […] Chemotaxis was quantified as above by subtracting out background cells to obtain total transmigrated cells and represented as the percentage of fMLP-treated control cells. […]
(§2) Chemotaxis was assayed using a Boyden chamber (Neuro Probe, Gaithersburg, Md.) using 3-μm polyvinylpyrrolidone-free polycarbonate filters (Neuro Probe). […] Chemotactic HL60 cells were scored by counting three microscope fields and subtracting the number of cells from fMLP wells as background. […] For all the small molecules, effects of the compounds on chemokinesis was analyzed by measuring chemotaxis in the presence of 250 nM fMLP in both the upper and lower chambers of the Boyden Chamber and measuring changes in transwell migration. […]

Data set [3] relates to differentiated HL60 cells. Briefly: GM-CSF-induced chemotaxis of differentiated HL60 cells (Boyden chamber). Format: cell-based, human. Particulars: 10 μM compound, 1 μM GM-CSF; result in words. The protocol: as §1, §2
Data set [4] concerns naloxone-precipitated morphine withdrawal in mice. As to the kind of experiment: Acute morphine physical dependence (naloxone-precipitated jumping). Format: in vivo, mouse. Particulars: morphine 100 mg/kg s.c. −4 hr; M119 100 nmol i.c.v. 30 min before naloxone 10 mg/kg i.p. The protocol:
Prior to the administration of naloxone (30 min) mice were injected with vehicle, i.c.v. Withdrawal was precipitated by an injection of the opioid antagonist, naloxone (10 mg/kg, i.p.). Mice were immediately placed in a clear cylinder and observed for 15 min. The number of vertical jumps was recorded during this time.

The test system of the next data set is N-type Ca^2+ channels. Briefly: Norepinephrine-dependent inhibition of N-type Ca2+ channels in rat superior cervical ganglion neurons (patch clamp). Format: cell-based. Particulars: initial analysis; result in words. The protocol: Norepinephrine inhibits N-type Ca^2+ channels through a Gβγ dependent mechanism in SCG neurons and activates GIRK channels when they are heterologously expressed. Neurons are pretreated with varying concentrations of compounds (either in the bath or included in the patch pipette), and NE dependent inhibition of N-type Ca^2+ channels are measured in the whole cell patch clamp configuration. […] This voltage dependence is diagnostic of Gβγ-mediated modulation. The “facilitation” ratio of the postpulse current to the prepulse current (during which inhibition is strong) provides a quantitative measure of the degree of Gβγ modulation. Uninhibited currents generally have a facilitation ratio around 1 so cells pretreated with compounds that inhibit Gβγ interactions with the channel causes the facilitation ratio to approach 1. The effects on responses to other receptors such as transfected μ-opioid receptors or endogenous M4 muscarinic receptors are also examined. GIRK channel regulation is assessed by microinjecting GIRK1/2 subunits in SCG neurons and measuring K^+ channel regulation by NE at varying concentrations of compound. Basal K^+ channel activity and Ca^2+ channel activity is assessed to look for non-specific effects of Gβγ blockers. […]
On the technique in general: Patch clamp records ionic current or voltage across a cell membrane.

The nature of data set [5]: Toxicity on repeated daily dosing in animals. Format: in vivo.
In another data set the target is T1, Gβγ-GRK2 interaction (UniProt P54311+P63212).
T1 construct: made in house; host or cells: bGβ1γ2: Sf9 insect cells
As to the kind of experiment: GRK2 binding to biotinylated Gβ1γ2 on streptavidin agarose.

In data set [6] the test system is GFP-PHAkt translocation (PI3Kγ activation) in HL60 cells. As to the kind of experiment: fMLP-dependent GFP-PH-Akt translocation in differentiated HL60 cells. Particulars: 10 μM compound; result in words. The class given is cell-based, human.
For data set [7], the system named is cAMP generation in adult mouse cardiomyocytes. Briefly: cAMP generation in isolated adult mouse cardiomyocytes. The class given is cell-based. Particulars: 10 μM M119 5 min pre-treatment, 100 nM isoproterenol 15 min; result in words. Here is the method: Isolated cardiomyocytes were treated with vehicle (V) or 100 nM isoproterenol (I) for 15 minutes in the presence or absence of a 5 minute pre-treatment with 10 μM M119 (M). Forskolin treatment, which directly activates adenylyl cyclase, was used as a control.

For data set [8], the system named is opioid-induced antinociception in mice. Particulars: M119 100 nmol i.c.v. with morphine i.c.v.; Bonacci et al., 2006; cited from earlier work.
The conditions of data set [9]: 250 mg/kg/day for two weeks, delivered by the NCI; cited from earlier work.

T1 sequence (P54311 whole entry): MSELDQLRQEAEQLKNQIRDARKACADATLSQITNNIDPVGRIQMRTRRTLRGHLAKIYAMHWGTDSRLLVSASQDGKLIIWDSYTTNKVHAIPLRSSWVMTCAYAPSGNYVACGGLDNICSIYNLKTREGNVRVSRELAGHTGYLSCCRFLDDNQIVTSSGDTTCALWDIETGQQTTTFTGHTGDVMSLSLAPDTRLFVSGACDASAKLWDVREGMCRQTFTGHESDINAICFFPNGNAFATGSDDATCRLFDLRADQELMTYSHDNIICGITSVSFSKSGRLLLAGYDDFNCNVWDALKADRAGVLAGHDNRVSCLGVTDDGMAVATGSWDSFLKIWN
T1 sequence (P63212 2-68 limits assumed): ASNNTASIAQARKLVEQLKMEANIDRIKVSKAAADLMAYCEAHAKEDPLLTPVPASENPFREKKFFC
Text for Gβγ-GRK2 interaction: GRK2 was detected with antibody to GRK2. Data are representative (mean ±SEM, except D) repeated at least three times each.

The term IC50 denotes the concentration at which inhibition is half-maximal. On to `O=C(O)C1CCCCC1c1c2ccc(=O)c(O)c-2oc2c(O)c(O)ccc12` (centres unmarked) [Compound M119, cyclohexanecarboxylic acid, 2-(4,5,6-trihydroxy-3-oxo-3H-xanthen-9-yl)-(9cl)], for which the effect on chemokinesis result in data set [1] is given as “Neither M119 nor gallein had any effects”. Moreover, the “effect on IL-8 regulated chemotaxis” value in [2] is “blocked”. Further, the “effect on GM-CSF-induced chemotaxis” value in data set [3] is given as “Neither M119 nor gallein blocked”. Moreover, in data set [4], the “number of vertical jumps in the 15-min counting period” value came to 23±14. In addition, the “effect on NE dependent inhibition of N-type Ca^2+ channels” value in the data set with N-type Ca^2+ channels is recorded as “unaffected”. In addition, the toxicity entry is “no overt toxicity was observed” in data set [5] (100 mg/kg/day intraperitoneal, one week) and “no reported overt evidence of toxicity” in data set [9]. Further, the IC50 at Gβγ-GRK2 interaction is around 5 µM. For the same compound, the “effect on fMLP-dependent translocation of GFP-PHAkt to the membrane” value in data set [6] is recorded as “inhibited”. Besides, the “effect on cAMP generation at baseline and with isoproterenol” value in data set [7] is “enhanced”. The “leftward shift / potentiation of morphine dose-response” value in [8] was 10 fold.

As for `O=C(O)c1ccccc1-c1c2ccc(=O)c(O)c-2oc2c(O)c(O)ccc12` (racemic) [Gallein], the effect on chemokinesis result in data set [1] is reported as “Neither M119 nor gallein had any effects”. In data set [2], the “effect on IL-8 regulated chemotaxis” value is “blocked”. The “effect on GM-CSF-induced chemotaxis” value in data set [3] is on record as “Neither M119 nor gallein blocked”. Besides, the “toxicity in intact animals and histology of lung, liver, brain, heart and kidney” value in data set [5] (10, 30 and 100 mg/kg/day daily injections, two weeks) is “nor any overt toxicity”. In addition, in [6], the “effect on fMLP-dependent translocation of GFP-PHAkt to the membrane” value is “inhibited”.

For the compound `O=C(O)C1CCCCC1c1c2ccc(=O)cc-2oc2cc(O)ccc12` (centres unmarked) [Compound M119B], the “effect on GRK2 binding to bGβ1γ2” value at Gβγ-GRK2 interaction (result in words) is on record as “did not have effects”.

These data come from patent publication US8975259B2, “Compositions and methods for inhibiting G protein signaling” (University of Rochester, priority 2007, dated 2015).
